The test system of one assay is ArcTRAP mice. Put plainly: ArcTRAP labeling, background recombination. In kind it is in vivo, mouse. Particulars: novel aqueous formulation of 4TM, reduced dosage.
For another assay, the system named is mPFC of Arc-rTag mice. The assay is described as follows: Activity-dependent ribosome profiling of mPFC (microarray, qPCR). In kind it is in vivo, mouse. Particulars: IP fraction, two weeks after labeling. The protocol: Male Arc-rTag mice were trained and labeled with 4TM with the same protocol used in ArcTRAP labeling. After labeling, the mice were returned and kept in their home cage for 14 days to allow full integration of tagged ribosomes.
Immunoaffinity purification of ribosome RNA from mPFC was carried out similarly to a protocol previously described (Sanz et al, Proc Natl Acad Sci USA, 106:13939-13944 (2009)) with minor modifications. For preparation of anti-GFP-conjugated dynabeads, for each sample 50 μl protein G dynabeads (Life Technologies) was first washed with PBST and then incubated with 2 μl anti-GFP antibody (Abcam, ab290) in a total volume of 200 μl PBST. […] RNA samples (all at 100 ng per sample) were processed at the Stanford Protein and Nucleic Acid Biotechnology Facility by one-cycle target preparation, labeling and hybridization to Mouse Gene 2.0 ST Array (Affymetrix), according to the manufacturer's protocol and analyzed by Affymetrix Transcriptiome Analysis Console.
For qPCR analysis, RNA was reverse transcribed using the ABI high capacity cDNA synthesis kit and used in quantitative PCR reactions containing SYBR-green fluorescent dye (ABI). Relative expression of mRNAs was determined after normalization with TBP levels using the ΔΔCt method. […]
(In general: In qPCR the cycle at which signal appears reflects the starting amount.)

Excerpt for ArcTRAP mice: Male ArcTRAP (ArcCreER+/−, Ai14+/−) mice were used for study. 6-7 week old ArcTRAP mice were handled and injected with saline daily for at least 5 days prior to the experiment (including the home cage controls) to minimize the labeling due to handling and injections. The mice were 7-8 weeks old at the time of behavioral labeling. […] The home cage control group remained in their home cage for the whole period. All the chambers were cleaned with 70% ethanol between trials. On experimental day 2, all mice received 5 mg/kg 4TM (IP injection) 3 hours after the behavioral challenge to enable TRAP labeling. All groups, including the home cage controls, received 4-hyroxytamoxifen injections at the same time of the day (2-3 PM). The bedding of all cages were refreshed daily for 48 hours to prevent 4TM retake. All the labeled mice were kept in their home cage for an additional 10 days to allow the full expression of tdTomoto before perfusion.
10 mg of 4TM (Sigma H6278) was first dissolved in 250 μl DMSO. This stock is first diluted in 5 ml of saline containing 2% Tween 80 and then diluted 1:1 again with saline. The final injectable solution contained: 1 mg/ml 4TM, 1% Tween 80 and 2.5% DMSO in saline.

In the case of 4-hydroxytamoxifen [4TM], the “background recombination in ArcTRAP line” value in the assay with ArcTRAP mice was “eliminate the background recombination”.

Consider `COC(=O)[C@H]1[C@@H](OC(=O)c2ccccc2)C[C@@H]2CC[C@H]1N2C` [cocaine], for which the “Npas4 transcript enrichment in cocaine-activated cells compared to shock-activated cells” value in the assay with mPFC of Arc-rTag mice stood at 3 fold.

These data come from patent publication US11624685B2, “Method and system for imaging and analysis of a biological specimen” (The Board of Trustees of the Leland Stanford Junior …, priority 2016, dated 2023).
